# Literature values, collected in US6072029A, “Derivatives of human α1 -antitrypsin and process for their preparation” (priority 1984, dated 2000).
# Where two headings read alike, the source gives them in different places.
# System: thrombin
substance,measurement,setting,value
"α1 -AT: natural human α1-antitrypsin, serine protease inhibitor",inactivation of thrombin,increasing molar excess of α1-antitrypsin,completely inhibited
same,inactivation of thrombin,molar ratio of 1:1,weak and incomplete
